The supplement of paper PMC4954754
± gives the uncertainty stated by the source.

Assays:
Settings in all cases: 18 h
HEK293T-Rex ERSE-FLuc [1] = assay: EC50 for ERSE-FLuc reporter activation
Procedure: (§1)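 Dose-response of hit compounds in HEK293T-Rex cells stably expressing ERSE-FLuc or XBP1-RLuc reporters, 18 hr treatment, 1536-well; luminescence normalised to 500 nM thapsigargin (100%) and DMSO (0%), fitted to give EC50 (M) and maximal activation; '>' marks EC50 above the top tested dose (~17 µM).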

HEK293T-Rex XBP1-RLuc [2] = assay: EC50 for XBP1-RLuc reporter activation
Procedure: as §1

HEK293T-Rex ERSE-FLuc [3] = assay: maximal ERSE-FLuc activation from dose-response fit, relative to thapsigargin (% of thapsigargin); higher = stronger activation
Procedure: as §1

HEK293T-Rex XBP1-RLuc [4] = assay: maximal XBP1-RLuc activation from dose-response fit, relative to thapsigargin (% of thapsigargin); higher = stronger activation
Procedure: as §1

| SMILES | EC50 for ERSE-FLuc reporter activation (HEK293T-Rex ERSE-FLuc [1]) [µM] | EC50 for XBP1-RLuc reporter activation (HEK293T-Rex XBP1-RLuc [2]) [µM] | maximal ERSE-FLuc activation (HEK293T-Rex ERSE-FLuc [3]) | maximal XBP1-RLuc activation (HEK293T-Rex XBP1-RLuc [4]) |
| --- | --- | --- | --- | --- |
| CCOc1ccc(/C=C(\C#N)c2[nH]nc(N)c2C#N)cc1OCC | 10 | > 16.9 | 59.8 ± 6.2 | 15.1 ± 1.6 |
| O=C(CCCN1CCC2(CC1)C(=O)N(Cc1cccc(F)c1)CN2c1ccccc1)c1ccc(F)cc1 | 4.46 | 4.02 | 187 ± 19 | 214 ± 7.7 |
| O=C(c1ccccc1)c1c(O)ccc2c(C(=O)c3ccccc3)c(O)ccc12 | > 12.5 | > 12.5 | 32.5 ± 3.7 | 34.9 ± 1.1 |
| CC(C)c1ccc(NC(=O)/C=C/c2ccco2)cc1 | > 17.2 | > 17.2 | 21.5 ± 4.6 | 7.59 ± 2.4 |
| Cc1ccc(O)c(NC(=O)c2cc(-c3ccc(O)cc3)on2)c1 | 9.05 | > 16.9 | 58.9 ± 2.1 | 30.8 ± 5.7 |
| O=[N+]([O-])c1ccccc1N/N=C/c1ccc(O)c(O)c1 | > 16.9 | > 16.9 | 38 ± 11 | 43.4 ± 3.5 |
| CC(=O)NC1C(OC2OC(CC(O)C3OC(n4ccc(=O)[nH]c4=O)C(O)C3O)C(O)C(O)C2NC(=O)/C=C\CCCCCCCCCC(C)C)OC(CO)C(O)C1O (stereo not drawn) | 0.521 | > 16.9 | 139 ± 19 | 45 ± 4.9 |
| O=[N+]([O-])c1ccc2nc(/C=C/c3ccccc3)[nH]c2c1 | > 16.9 | > 16.9 | 23.7 ± 12 | 3.13 ± 2.4 |
| CCCCCCc1ccc(-c2ncc(N)cn2)cc1 | 5.65 | > 16.9 | 76.7 ± 9.1 | 44.3 ± 1.5 |
| CC(C)CNC(=O)c1cc(-c2ccc(F)cc2)no1 | > 16.9 | > 16.9 | 20.8 ± 5.8 | 4.76 ± 1.8 |
| O=C(N/N=C\C(Cl)=C\c1ccccc1)c1n[nH]c2c1CCCC2 | > 16.9 | > 16.9 | 19.7 ± 5.1 | 3.51 ± 3.7 |
| Nc1ccc(-c2nc3cc(N)c(Cl)cc3[nH]2)cc1 | > 14.7 | > 14.7 | 29.6 ± 7.5 | 17.6 ± 0.39 |
| COc1ccc2oc(=Nc3cc(F)ccc3F)c(C(N)=O)cc2c1 | > 14.7 | > 14.7 | 19.1 ± 2.2 | 1.95 ± 1.5 |
| Nc1ccccc1NC(=O)c1ccc(C(F)(F)F)cc1 | 9.12 | > 19.9 | 73.1 ± 8.1 | 37.7 ± 3.5 |
| COc1cccc(/C=N\NC(=O)c2n[nH]c3c2CCC3)c1 | > 16.6 | > 16.6 | 25.8 ± 1.9 | 4.03 ± 2.5 |
| O=c1[nH]c(COc2ccccc2)nc2sc3c(c12)CCCC3 | > 16.3 | > 16.3 | 23.3 ± 2.4 | 6.01 ± 1.1 |
| CCCNC(=O)c1ccc2nc(-c3ccc4[nH]ccc4c3)sc2c1 | > 17.4 | > 17.4 | 13.9 ± 6.1 | 2.49 ± 1.2 |
| COc1cccc(-c2nc3ccc(N)cc3[nH]2)c1 | > 16.9 | > 16.9 | 20.8 ± 3.1 | 14.7 ± 3.4 |
| O=C(Nc1ccccc1O)c1ccc(C(=O)c2ccccc2)cc1 | 7.47 | > 16.8 | 103 ± 3.3 | 15.1 ± 5.4 |
| COc1ccc(N(C(=O)c2ccccc2)S(=O)(=O)c2cc(OC)ccc2OC)cc1 | 6.69 | 5.82 | 125 ± 14 | 185 ± 8.3 |
| CC(=O)Oc1ccc2cc(NC(=O)c3ccc(C)cc3)c(=O)oc2c1 | > 15.1 | > 15.1 | 25.8 ± 1.6 | 14.6 ± 0.94 |
| O=C(NC1CCCC1)c1cc(-c2cccs2)on1 | 13.4 | > 16.9 | 57.6 ± 6.2 | 11.9 ± 3.2 |
